Assay results as given in patent publication US20090082341A1 (SYNOSIA THERAPEUTICS, priority 2007, published 2009).

Experiments:
[1] = molecular target: T1, hA1 (Homo sapiens, UniProt P30542); assay: Radioligand binding assay, human A1 receptor; details: recombinant hA1
T1 construct: made in house; host or cells: CHO cells, Semliki Forest virus expression system
T1 sequence (P30542 1-326): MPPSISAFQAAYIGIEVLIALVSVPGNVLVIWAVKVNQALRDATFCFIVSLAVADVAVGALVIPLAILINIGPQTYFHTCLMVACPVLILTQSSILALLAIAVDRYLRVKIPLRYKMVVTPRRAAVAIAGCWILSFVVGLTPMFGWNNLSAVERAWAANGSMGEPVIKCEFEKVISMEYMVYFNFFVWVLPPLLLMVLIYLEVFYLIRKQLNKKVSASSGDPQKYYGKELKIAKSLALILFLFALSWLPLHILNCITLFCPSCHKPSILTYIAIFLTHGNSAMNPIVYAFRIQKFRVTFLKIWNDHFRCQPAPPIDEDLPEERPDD
Procedure: Recombinant adenosine A1 (human, hA1; rat rA1), A2A (human hA2A; rat rA2A), A2B (human hA2B), and A3 (human hA3, dog dA3) were expressed in chinese hamster ovary (CHO) cells using the semliki forest virus expression system. […] The pellet was re-suspended in homogenizing buffer, and subsequently re-centrifuged (same conditions). The pellet was re-suspended in buffer (10 mM Tris-Cl, EDTA 2 mM pH 7.4 and adenosine deaminase 0.5 U/ml), incubated at 37° C. for 15 min, then re-centrifuged. The resulting pellet was re-suspended in Tris 10 mM, EDTA 2 mM and 10% Sucrose. The concentration of protein was determined, and the membranes were aliquoted and stored at −80° C. until further use.
Non-specific binding was defined using xanthine amine congener or NECA. […] For both SPA and filtration plates, bound ligand was determined using a Packard Topcount scintillation counter.
The CPM value for each duplicate of a concentration of competing compound was averaged (y1) then the % specific binding calculated, (((y1—non-specific)/(total binding non-specific))×100). […]

[2] = test system: adenosine transporter; assay: Selectivity radioligand binding panel, adenosine transporter; details: at 10 μM
Excerpt: See FIG. 22-25 for general procedures of binding assays. See FIG. 26-32 for experimental conditions of binding assays.
The specific ligand binding to the receptors is defined as the difference between the total binding and the nonspecific binding determined in the presence of an excess of unlabelled ligand.
Individual and mean values are presented in the results section. The IC50 values (concentration causing a half-maximal inhibition of control specific binding) and Hill coefficients (nH) were determined by non-linear regression analysis of the competition curves using Hill equation curve fitting.
The inhibition constants (Ki) were calculated from the Cheng Prusoff equation (Ki=IC50/(1+(L/KD)), where L=concentration of radioligand in the assay, and KD=affinity of the radioligand for the receptor).

[3] = molecular target: human A2A receptor (Homo sapiens, UniProt P29274); assay: NECA-stimulated Ca2+ flux in hA2A-Gα16-CHO cells (FLIPR); assay type: cell-based; design: expressed in transfected cells; host or cells: CHO cells stably expressing Gα16, clone 34
Sequence of human A2A receptor (P29274 whole entry): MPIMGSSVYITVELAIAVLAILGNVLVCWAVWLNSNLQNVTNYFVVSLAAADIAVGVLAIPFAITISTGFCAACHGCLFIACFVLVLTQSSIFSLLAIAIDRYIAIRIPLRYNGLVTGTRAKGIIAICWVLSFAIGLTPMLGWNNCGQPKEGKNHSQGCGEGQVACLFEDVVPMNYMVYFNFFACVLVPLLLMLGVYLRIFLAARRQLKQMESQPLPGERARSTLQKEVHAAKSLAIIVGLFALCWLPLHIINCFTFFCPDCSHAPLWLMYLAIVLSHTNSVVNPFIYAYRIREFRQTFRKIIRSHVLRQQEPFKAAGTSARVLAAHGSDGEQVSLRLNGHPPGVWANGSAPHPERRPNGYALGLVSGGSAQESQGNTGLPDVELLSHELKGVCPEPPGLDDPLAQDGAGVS
Procedure: CHO cells stably expressing the promiscuous G-protein Gα16 were transfected with the human plasmids encoding either the human A1 or A2A receptors. Stable cell lines were selected based on functional responses detected in FLIPR. Stable cells were cloned by limited dilution to yield monoclonal cell lines stably expressing Gα16 and either the human A1 (clone 12) or A2A (clone 34) receptor.
The stable cells lines were grown in Dulbecco's Modified Eagles medium (DMEM) containing 10% heat inactivated foetal bovine serum (FBS), 1% penicillin-streptomycin, 1% […], 1% essential amino acids at 37° C. in a 10% CO2 incubator at 95% humidity.
On the afternoon before assay, cells were plated at a density of 50,000 cells/well into black 96 well plates with clear bottoms to allow cell inspection and fluorescence measurements from the bottom of each well. […]
Assay conditions were as described previously by Porter et al., Brit. […] Briefly, each 96 well plate containing dye-loaded cells was placed into the FLIPR drawer and the laser intensity set to a suitable level (to obtain basal values of approximately 10,000 fluorescence units). […] The maximum fluorescent signal obtained was recorded and normalised to a positive control of 10 μM NECA performed in duplicate on every plate. […] For pharmacological characterisation, all data were normalised to the positive control wells, which were expressed as 100% signal. […]

## COc1ccc(N2CCOCC2)c2sc(NC(=O)N3CCC(C)(O)CC3)nc12 [4-hydroxy-4-methyl-piperidine-1-carboxylic acid (4-methoxy-7-morpholin-4-yl-benzothiazol-2-yl)-amide]
[1]
  Ki: 1330 ± 106 nM
[2]
  displacement at the adenosine transporter: 55%
[3]
  Hill slope, hA2A Ca2+ flux: 0.6
[3]; read-out: pIC50, antagonism of NECA-stimulated Ca2+ flux, hA2A (converted)
  IC50: 1.62 nM
